Experimental data reported in patent US20180177749A1, “USE OF CYP EXPRESSION TO DIRECT THERAPEUTIC INTERVENTION IN CANCER” (REGENTS OF THE UNIVERSITY OF MINNESOTA, priority 2016, published 2018).

Tested on: MCF-7 cells
Test: Cellular EET levels by LC-ESI/MS/MS
Type: cell-based, human
Settings: metformin 5 mM, 6 hours
Experimental: Samples were submitted to liquid chromatography-electrospray ionization/multiple reaction monitoring/mass spectrometry (LC-ESI/MRM/MS) analysis in a Thermo Electron Quantum Discovery Max triple quadrupole mass spectrometer (Thermo Finnigan, San Jose, Calif.) coupled with an Agilent 1100 HPLC (Santa Clara, Calif.), using argon as the collision gas. Negative ion monitoring was performed at the following diagnostic product ions: 319 m/z→155 m/z for 8,9-EET; 319 m/z→179 m/z for 11,12-EET; 319 m/z→219 m/z for 14,15-EET; 339 m/z→163 m/z for 8,9-[13C20]EET; 339 m/z→233 m/z for 11,12-[13C20]EET; and 339 m/z→259 m/z for 14,15-[^13C20]EET. Base-line resolution of EET regioisomers was achieved on a Phenomenex Luna C18 (2) reverse phase capillary column (250×0.5 mm, 5-μm particles) using the following mobile phase combinations: isocratic 5% B for 5 min, gradient 5-70% B for 5 min, hold at 70% for 30 min and then 95% for 10 min; A: 0.01% acetic acid in water, B: 0.01% acetic acid in acetonitrile; […] flow rate. A standard curve was obtained by linear regression of the peak area ratio of authentic EET regioisomers against internal standards. The amount of EETs in samples was calculated according to the standard curve. The (±)-5,6-EET regioisomer was not measured because it undergoes rapid internal degradation. […]

SMILES: CCCCCCNC(=N)NC(=N)NCc1ccccc1 [HBB, N1-hexyl-N5-benzyl-biguanide]
- cellular EET levels: doesn't lower total EET levels
